Measurements reported in US20030187064A1, “Use” (priority 2001, published 2003).
Values joined by “and” are separate entries in the source; they are usually repeats but may differ in a detail not shown here. Equal values may be shown once.

Legend:
[1] = Preserving effect in skin cream (oil-in-water); conditions: 250 or 2000 ppm; compared with methyl paraben
[2] = Preserving effect in shampoo; conditions: 2000 ppm; compared with a normally used preservative
[3] = Preserving effect in toothpaste; conditions: 2000 ppm; compared with sodium benzoate
[4] = Irritation effect of shampoo on the scalp; conditions: added to shampoo, 2000 ppm
[5] = Irritation effect of skin cream on the skin; conditions: added to skin cream, 250 or 2000 ppm
[6] = test system: B. anthracis 204; type: cell-based, Bacillus anthracis; conditions: 24 h at 30° C.
[7] = test system: B. anthracis; type: cell-based, Bacillus anthracis; conditions: 24 h at 30° C.
[8] = test system: B. anthracis 3.046; type: cell-based, Bacillus anthracis; conditions: 24 h at 30° C.
[9] = test system: Bacillus anthracis; type: cell-based
[10] = test system: caries; assay: Caries inhibition by toothpaste with APP; conditions: added to toothpaste, 2000 ppm
[11] = cited from earlier work
[12] = tests disclosed in the literature (Baute et al. 1993); cited from earlier work
[13] = Stability of APP in water; conditions: water at 24° C.
[14] = test system: yeasts and moulds as well as catalase-positive bacteria; conditions: cited from earlier work
[15] = test system: aerobic, Gram-negative bacteria; conditions: cited from earlier work
[16] = test system: Gram-positive bacteria, yeasts, and moulds; conditions: cited from earlier work
[17] = test system: moulds; conditions: pH of 5.5; cited from earlier work
[18] = test system: bacteria; conditions: cited from earlier work

O=C1CO[C@H](CO)[C@@H](O)[C@@H]1O [AF, 1,5-anhydro-D-fructose]
Preserving effect in skin cream [1]: as good preservatives as the commonly used preservative
Preserving effect in shampoo [2]: as good preservatives as the commonly used preservative
Preserving effect in toothpaste [3]: as good preservatives as the commonly used preservative
Irritation effect on the scalp [4]: no irritation effect
Irritation effect on the skin [5]: no irritation effect

O=C1C[C@@H](CO)OC=C1O [APP, 1,5-Anhydro-4-deoxy-D-glycero-hex-1-en-3-ulose]
APP level causing significant inhibition [6]: 4000 ppm and 2000 ppm
APP level causing total inhibition [6]: >4000 ppm and 4000 ppm
APP level causing significant inhibition [7]: 2000 ppm
APP level causing total inhibition [7]: 4000 ppm and >4000 ppm
APP level causing significant inhibition [8]: 2000 ppm
APP level causing total inhibition [8]: 3000 ppm
Sensitivity in well diffusion test (zones of inhibition) [9]: sensitive
Preserving effect in skin cream [1]: as good preservatives as the commonly used preservative
Preserving effect in shampoo [2]: as good preservatives as the commonly used preservative
Preserving effect in toothpaste [3]: as good preservatives as the commonly used preservative
Inhibition of caries [10]: inhibited caries
Stability ([11]; pH 1.5-5.5): stable
half-life ([11]; pH 11-12.5): 5 h
Function as an antibiotic [12]: did not function satisfactorily as an antibiotic
Stability in water ([13]; 2 weeks): stable
Stability in water ([13]; after 2 months): completely disappears
Irritation effect on the scalp [4]: no irritation effect
Irritation effect on the skin [5]: no irritation effect

C/C=C/C=C/C(=O)O [Sorbic Acid]
Effective concentration [14]: 500-3000 ppm

O=S=O [Sulphur Dioxide]
Effective concentration for inhibition [15]: 250-500 ppm
Effective concentration [16]: 800-2000 ppm

Propionic Acid and Propionate
Concentration inhibiting moulds [17]: 125 to 12500 ppm
Concentration necessary for inhibition of bacteria [18]: > 16000 ppm
